Assay results published in patent US20120035125A1, “FULVIC ACID IN COMBINATION WITH FLUCONAZOLE OR AMPHOTERICIN B FOR THE TREATMENT OF FUNGAL INFECTIONS” (Natracine UK Limited, priority 2009, published 2012).
In brackets after ≈: the same amount, converted by molar mass. Where two headings read alike, the source gives them in different places.

Legend:
Type in all cases: cell-based
[1] = tested on: Candida tropicalis; test: In vitro susceptibility, fluconazole and CHD-FA, main experiment
Experimental: (§1) Each culture was grown on Sabouraud agar at 37° C. for 48 h to ensure purity.
(§2) Sterile plastic, disposable, microtitration plates with 96 flat-bottom wells were used.
(§3) a) Column 1 of the microtitration tray was filled with 100 μL of sterile water containing four times the final drug concentration (512 mg/L fluconazole).
(§4) b) Columns 2-12 were filled with 50 μL of distilled water
(§5) c) 50 μL amounts were taken from wells in column 1 and diluted two-fold by transferring them to column 2 with a multichannel pipette (±2% coefficient of variation). 50 μL samples were then removed from column 2 and transferred to column 3, and so on through to column 10. The last 50 μL of diluted drug is then discarded. Thus, each well in columns 1-10 will contain 50 μL of water containing four times the final antifungal drug concentrations.
(§6) Stock solutions of CHD-FA were produced containing 4% and 2% (also 1% and 0.5% for Candida parapsilosis and Candida krusei). 100 μL of the diluted CHD-FA was added to microtitration trays in so that rows contain final dilutions of: • For Candida albicans and tropicalis: 1st row of pair 0.5% CHD-FA, 2nd row of pair solvent only • For Candida glabrata: 1st row of triplet 1% CHD-FA, 2nd row of triplet 0.5% CHD-FA, 3rd row of triplet solvent only • For Candida parapsilosis and Candida krusei rows included 2%, 1%, 0.5%, 0.25 and 0.125% CHD-FA and a row of solvent only.
(§7) All the above concentrations were mixed with fixed concentrations of fluconazole at 128, 32, 8, 2, 0.5 mg/L and solvent for synergy/antagonism assessment.
(§8) 50 μL of the diluted Candida spp suspension in 4×RPMI was added to all wells. This produces a well containing 200 μL final volume (made up of 50 μL diluted fluconazole, 100 μL diluted CHD-FA or diluent, 50 μL of 4×RPMI containing Candida)
(§9) All plates were incubated at 37° C. in air in a darkened incubator.
(§10) Plates were read visually with the endpoint taken as the lowest concentration of drug that inhibited growth by 50% of that of the drug free control.

[2] = tested on: Candida albicans; test: as above
Experimental: as §1, §2, §3, §4, §5, §6, §7, §8, §9, §10

[3] = tested on: Candida glabrata; test: as above
Experimental: as §1, §2, §3, §4, §5, §6, §7, §8, §9, §10

[4] = tested on: Candida albicans; test: In vitro susceptibility, fluconazole and CHD-FA, preliminary experiment (5 clinical isolates); conditions: read-out: Minimum Inhibitory Concentrations of Fluconazole
Experimental: as §1
Clinical Microbiology and Infection 9:1-VIII.)
a) All yeasts were cultured in ambient air at 35-37° C. on recovery medium (Sabouraud dextrose agar) for 18-24 h before testing.
b) The inoculum was prepared by picking five distinct colonies from 18 to 24 h cultures and suspending them in 5 mL of sterile distilled water.
c) The inoculum was completely suspended by vigorous shaking on a vortex mixer for 15 s. The cell density was adjusted to the density of a 0.5 McFarland standard by adding sterile distilled water and measuring absorbance in a spectrophotometer at a wavelength of 530 nm. This gave a yeast suspension of 1-5×10^6 cfu/mL. A working suspension was prepared by a further dilution of 1 in 10 further in 4×RPMI to give […] (The RPMI medium used in the plates was prepared at 4×the final strength to allow for a 75% dilution once the inoculum and diluted CHD-FA was added).
as §2, §3, §4, §5
Stock solutions of CHD-FA were produced containing 4%, 2%, 1%, 0.5% and 0.25% of the native compound. 100 μL of the diluted CHD-FA was added to microtitration trays in so that row A contains a final dilution of 2% row B, 1%, row C 0.5%, row D 0.25% row E 0.125% and row F diluent only.
50 μL of the diluted Candida albicans suspension in 4×RPMI was added to all cells. This produces a well containing 200 μL final volume (made up of 50 μL diluted fluconazole, 100 μL diluted CHD-FA or diluent, 50 μL of 4×RPMI containing Candida albicans)
as §9, §10
The pH of CHD-FA was adjusted to pH7.0 using 10M NaOH solution (the ideal pH for fluconazole activity). […] Susceptibility assays were repeated as above.

[5] = tested on: Candida parapsilosis; test: In vitro susceptibility, fluconazole and CHD-FA, main experiment; conditions: Lodderomyces parapsilosis, read-out: Fluconazole MIC (mg/L) alone
Experimental: as §2, §3, §4, §5, §6, §7, §8, §9, §10

[6] = tested on: Candida krusei; test: as above
Experimental: as §2, §3, §4, §5, §6, §7, §8, §9, §10

OC(Cn1cncn1)(Cn1cncn1)c1ccc(F)cc1F [Fluconazole, fluconazole]
MIC ([1]; C. tropicalis isolate 1, read-out: Fluconazole MIC (mg/L) alone): 16 mg/L
MIC ([1]; C. tropicalis isolate 2, read-out: Fluconazole MIC (mg/L) alone): > 64 mg/L
MIC ([1]; C. tropicalis isolate 3, read-out: Fluconazole MIC (mg/L) alone): 16 mg/L
MIC ([1]; C. tropicalis isolate 4, read-out: Fluconazole MIC (mg/L) alone): 16 mg/L
MIC ([2]; C. albicans isolate 1, read-out: Fluconazole MIC (mg/L) alone): 128 mg/L
MIC ([2]; C. albicans isolate 2, read-out: Fluconazole MIC (mg/L) alone): 8 mg/L
MIC ([2]; C. albicans isolate 3, read-out: Fluconazole MIC (mg/L) alone): 16 mg/L
MIC ([2]; C. albicans isolate 4, read-out: Fluconazole MIC (mg/L) alone): 4 mg/L
MIC ([2]; C. albicans isolate 5, read-out: Fluconazole MIC (mg/L) alone): 128 mg/L
MIC ([2]; C. albicans isolate 6, read-out: Fluconazole MIC (mg/L) alone): > 128 mg/L
MIC ([2]; C. albicans isolate 7, read-out: Fluconazole MIC (mg/L) alone): 128 mg/L
MIC ([2]; C. albicans isolate 8, read-out: Fluconazole MIC (mg/L) alone): 128 mg/L
MIC ([2]; C. albicans isolate 9, read-out: Fluconazole MIC (mg/L) alone): 64 mg/L
MIC ([2]; C. albicans isolate 10, read-out: Fluconazole MIC (mg/L) alone): 128 mg/L
MIC ([2]; C. albicans isolate 11, read-out: Fluconazole MIC (mg/L) alone): 0.5 mg/L
MIC ([2]; C. albicans isolate 12, read-out: Fluconazole MIC (mg/L) alone): 64 mg/L
MIC ([2]; C. albicans isolate 13, read-out: Fluconazole MIC (mg/L) alone): 0.5 mg/L
MIC ([2]; C. albicans isolate 14, read-out: Fluconazole MIC (mg/L) alone): 32 mg/L
MIC ([2]; C. albicans isolate 15, read-out: Fluconazole MIC (mg/L) alone): 2 mg/L
MIC ([2]; C. albicans isolate 16, read-out: Fluconazole MIC (mg/L) alone): 64 mg/L
MIC ([2]; C. albicans isolate 17, read-out: Fluconazole MIC (mg/L) alone): > 128 mg/L
MIC ([2]; C. albicans isolate 18, read-out: Fluconazole MIC (mg/L) alone): > 128 mg/L
MIC ([2]; C. albicans isolate 19, read-out: Fluconazole MIC (mg/L) alone): 0.5 mg/L
MIC ([2]; C. albicans isolate 20, read-out: Fluconazole MIC (mg/L) alone): > 128 mg/L
MIC ([2]; C. albicans isolate 21, read-out: Fluconazole MIC (mg/L) alone): 4 mg/L
MIC ([2]; C. albicans isolate 22, read-out: Fluconazole MIC (mg/L) alone): 2 mg/L
MIC ([2]; C. albicans isolate 23, read-out: Fluconazole MIC (mg/L) alone): 1 mg/L
MIC ([2]; C. albicans isolate 24, read-out: Fluconazole MIC (mg/L) alone): 1 mg/L
MIC ([2]; C. albicans isolate 25, read-out: Fluconazole MIC (mg/L) alone): > 128 mg/L
Fluconazole MIC (mg/L) alone ([3]; C. glabrata isolate 1): >128 mg/L
Fluconazole MIC (mg/L) alone ([3]; C. glabrata isolate 2): >128 mg/L
Fluconazole MIC (mg/L) alone ([3]; C. glabrata isolate 3): >128 mg/L
Fluconazole MIC (mg/L) alone ([3]; C. glabrata isolate 5): >128 mg/L
Fluconazole MIC (mg/L) alone ([3]; C. glabrata isolate 6): >128 mg/L
Fluconazole MIC (mg/L) alone ([3]; C. glabrata isolate 7): >128 mg/L
Fluconazole MIC (mg/L) alone ([3]; C. glabrata isolate 8): >128 mg/L
Fluconazole MIC (mg/L) alone ([3]; C. glabrata isolate 9): >128 mg/L
Fluconazole MIC (mg/L) alone ([3]; C. glabrata isolate 10): >128 mg/L
Fluconazole MIC (mg/L) alone ([3]; C. glabrata isolate 11): >128 mg/L
MIC ([3]; Nakaseomyces glabratus, C. glabrata isolate 4, read-out: Fluconazole MIC (mg/L) alone): > 128 mg/L
MIC ([4]; Candida Strain 1, Solvent (no CHD-FA)): 128 µg/mL (≈ 418 µM)
MIC ([4]; Candida Strain 2, Solvent (no CHD-FA)): 16 µg/mL (≈ 52.2 µM)
MIC ([4]; Candida Strain 3, Solvent (no CHD-FA)): 16 µg/mL (≈ 52.2 µM)
MIC ([4]; Candida Strain 4, Solvent (no CHD-FA)): 32 µg/mL (≈ 104 µM)
MIC ([4]; Candida Strain 5, Solvent (no CHD-FA)): 16 µg/mL (≈ 52.2 µM)
MIC ([5]; C. parapsilosis isolate 1): 8 mg/L
MIC ([5]; C. parapsilosis isolate 2): 2 mg/L
MIC ([5]; C. parapsilosis isolate 3): 8 mg/L
MIC ([5]; C. parapsilosis isolate 4): 8 mg/L
MIC ([5]; C. parapsilosis isolate 5): 8 mg/L
Fluconazole MIC (mg/L) alone ([6]; C. krusei isolate 1): 32 mg/L
Fluconazole MIC (mg/L) alone ([6]; C. krusei isolate 2): 32 mg/L
Fluconazole MIC (mg/L) alone ([6]; C. krusei isolate 4): 32 mg/L
Fluconazole MIC (mg/L) alone ([6]; C. krusei isolate 5): 32 mg/L
MIC ([6]; Pichia kudriavzevii, C. krusei isolate 3, read-out: Fluconazole MIC (mg/L) alone): 32 mg/L
